Reference: article PMC4747383, “Design of a peptidic inhibitor that targets the dimer interface of a prototypic galectin” (Oncotarget, 2015)
Entries after “also recorded” stand apart in the source; their conditions may differ. No end group written: not given here.

Key:
[1] = test system: PBMCs; assay: hGal-7-induced apoptosis of PBMCs, PARP-1 cleavage (Western blot); type: cell-based, human; settings: increasing hGal-7 pre-incubated with peptide 200 μM, 4 h at 37°C, serum-free, two independent experiments
Protocol: The Jurkat cell line was maintained in RPMI 1640 medium. The culture medium was supplemented with 10% [v/v] fetal bovine serum, 2 mmol/L L-glutamine, 10 mM HEPES buffer, and 1 mM sodium pyruvate. All cell culture products were purchased from Life Technologies (Burlington, ON, Canada). Isolation of peripheral mononuclear cell (PBMCs) was performed as previously described.
For the apoptosis tests, whole-cell extracts were homogenized and resuspended in RIPA buffer (Thermo Fisher Scientific, Rockford, IL, USA) containing protease inhibitors (Roche, Laval, QC, Canada). Equal amounts of whole-cell extracts (25 μg) were separated on SDS-PAGE and transferred onto nitrocellulose membranes (Bio-Rad Laboratories). The membranes were first blocked with 5% milk [w/v] in TBS/0.5% Tween 20 [v/v] for 1 h at room temperature and subsequently blotted overnight in a solution of TBS containing 3% BSA [w/v] and 0.5% Tween 20 [v/v]. The following antibodies were used: a rabbit anti-poly-(ADP-ribose) polymerase (PARP)-1 (p25) polyclonal antibody (1:5000; Epitomics, Burlingame, CA, USA) and a mouse anti-β-actin (1:10000; Sigma-Aldrich, St. Louis, MO, USA). […]
concentrations of recombinant human gaI-7 were pre-incubated with the hGaI-7129–135 (200 μM) prior to its addition to A. Jurkat T cells or B. PBMCs. Apoptosis wa, measured after 4 h at 37°C in serum·free conditions. […]

[2] = test system: Jurkat T cells; assay: hGal-7-induced apoptosis of Jurkat T cells, Annexin V/PI flow cytometry; type: cell-based; settings: hGal-7 and peptide pre-incubated 1 h at 4°C, cells 4 h at 37°C, serum free RPMI 1640, three independent experiments
Protocol: Apoptosis was measured by Western blot analysis of PARP-1 cleavage. The PACAP28–38 was used as a control. β-actin was used as a loading control. B. Flow cytometric analysis of Jurkat T cells with stained Annexin V (FL1) and propidium iodide-PI (FL3) following binding of recombinant hGal-7 with or without hGal-7(129–135). Cells in the lower right quadrant are representative of annexin V-positive/PI-negative, or early apoptotic cells. Cells in the upper right quadrant indicate annexin V-positive/PI-positive, or late apoptotic cells. C. Histogram showing the percentages of annexin V-positive Jurkat T cells obtained by adding the percentages of cells found in the lower and upper right quadrants. Results are representative of three independent experiments. Error bars represent standard deviation.
(§1) Apoptosis was measured by flow cytometry using FITC-labeled Annexin V (Biolegend, San Diego, CA, USA) and propidium iodide (PI). Briefly, the corresponding dilutions of recombinant hGal-7 and hGal-7(129–135) peptides were pre-incubated for 1 h at 4°C in serum free RPMI 1640 medium. 2.5 × 10^5 Jurkat cells were then harvested in the same medium and incubated with their corresponding dilutions at 37°C for 4 h. Cells were washed once in PBS and once in binding buffer (0.01 M HEPES, 0.14 M NaCl, 2.5 mM CaCl2, pH 7.4). Cells were then incubated for 15 min with Annexin V in the dark at room temperature. A total of 400 μL of binding buffer containing 0.25 μg/mL propidium iodide was added to the cells before analysis by flow cytometry.

[3] = test system: Jurkat T cells; assay: Apoptosis/toxicity of peptide alone on Jurkat T cells; type: cell-based; settings: for apoptosis induced by peptide alone in Jurkat T cells: 4 h at 37°C, Annexin V/PI two-color flow cytometry, three independent experiments
Protocol: as §1
Supplementary Figure S4: Inability of the control peptide (PACAP) to induce apoptosis on Jurkat T cells. Jurkat T cells wee incubated 4 h at 37°C with increasing concentrations of the control peptide PACAP before two-color flow cytometric analysis. On the left histograms, cells in the lower right quadrant are representative of annexin V-positive/PI-negative, or early apoptotic cells. Cells in the upper right quadrant indicate annexin V-positive/PI-positive, or late apoptotic cells. The right histograms show the percentages of annexin V-positive Jurkat T cells obtained by adding the percentages of cells found in the lower and upper right quadrants. Results are representative of three independent experiments. Error bars represent standard deviation.
(also on this page, place not known: www.impactjournals.com/oncotarget/ Oncotarget, Materials 2015 Supplementary) […]

[4] = set-up: method as in PMID 22922050; settings: ref [51]; cited from earlier work

Substance | inhibition of hGal-7-induced apoptosis in PBMCs (PARP-1 cleavage) [1] | inhibition of hGal-7-induced apoptosis in PBMCs (PARP-1 cleavage) ([1]; listed as hGaI-7129–135) | hGal-7-induced apoptosis of Jurkat T cells (Annexin V/PI) [2] | hGal-7-induced apoptosis of Jurkat T cells (Annexin V/PI) ([2]; listed as hGal-7 (129–135)) | apoptosis induced by peptide alone in Jurkat T cells [3] | toxicity of peptide alone on Jurkat T cells [3] | apoptosis induced by peptide alone in Jurkat T cells ([3]; listed as PACAP) | binding of cell surface phospholipids [4]
H-LDSVRIP-NH2 [hGal-7(129–135), peptide corresponding to hGal-7 segment between residues 129–135] | also observed using human peripheral blood monocytes | decreases gaI-7-induced apoptosis | This effect on apoptosis was confirmed by flow cytomtery | Apoptotic levels of Jurkat T cells induced by hGal-7 were decreased | did not induce apoptosis in Jurkat T cells | – | – | –
PACAP(28–38): an inactive fragment of the human Pituitary Adenylate Cyclase-Activating Polypeptide (PACAP) (GKRYKQRVKNK-NH2; ends and bridges not checked; UniProt P18509 159-169, looked up, fragment) | – | – | a slight increase in apoptosis is observed | – | did not induce apoptosis in Jurkat T cells; also recorded: does not induce apoptosis | did not display any toxicity on Jurkat T cells alone; also recorded: minimal toxicity on the cell line | Inability | binds cell surface phospholipids
